Patent publication US7173004B2, “Macrocyclic isoquinoline peptide inhibitors of hepatitis C virus” (Bristol-Myers Squibb Company, priority 2003, dated 2007)
pEC50: −log10 of the molar value. Where a name gives a salt, the structure may show the parent alone.

These compounds were tested on HCV replicon (HCV 1b-377-neo replicon cells, Huh7) (assay: HCV replicon cell-based FRET assay). Details: Hepatitis C virus, Huh-7.
Method: HCV Replion assays were utilized in the present invention, and were prepared, conducted and validated as follows:
An HCV replicon whole cell system was established as described by Lohmann V, Korner F, Koch J, Herian U, Theilmann L, Bartenschlager R., Science 285(5424): 110–3 (1999). This system enabled us to evaluate the effects of our HCV Protease compounds on HCV RNA replication. Briefly, using the HCV strain 1B sequence described in the Lohmann paper (Assession number: AJ238799), an HCV cDNA was synthesized by Operon Technologies, Inc. (Alameda, Calif.), and the full-length replicon was then assembled in plasmid pGem9zf(+) (Promega, Madison, Wis.) using standard molecular biology techniques. The replicon consists of (i) the HCV 5′ UTR fused to the first 12 amino acids of the capsid protein, (ii) the neomycin phosphotransferase gene (neo), (iii) the IRES from encephalomyocarditis virus (EMCV), and (iv) HCV NS3 to NS5B genes and the HCV 3′ UTR. Plasmid DNAs were linearized with ScaI and RNA transcripts were synthesized in vitro using the T7 MegaScript transcription kit (Ambion, Austin, Tex.) according to manufacturer's directions. To generate cell lines, 4×10^6 Huh-7 cells (kindly provided by R. Bartenschlager and available from Health Science Research Resources Bank, Japan Health Sciences Foundation) were electroporated (GenePulser System, Bio-Rad) with 10 microgram(“μg”) of RNA transcript and plated into 100-mm dishes. After 24 h, selective media containing 1.0 milligrams/milliliter (“mg/ml”) G418 was added and media was changed every 3 to 5 days. Approximately 4 weeks after electroporation, small colonies were visible which were isolated and expanded for further analysis. These cell lines were maintained at 37° C., 5% CO2, 100% relative humidity in DMEM (Cat# 11965-084) Gibco-BRL, Rockville, Md., with 10% heat inactivated calf serum (Sigma), 10 ml of 100× penicillin/streptomycin (Cat# 15140-122) Gibco-BRL, Rockville, Md., Geneticin (Cat# 10131-027) Gibco-BRL, Rockville, Md. at 1 mg/ml. One of the cell lines (deposited as ATCC Accession No. PTA-4583 in the American Type Culture Collection) which had approximately 3,000 copies of HCV replicon RNA/cell was used for development of the assay (HCV 1b-377-neo replicon cells).
Huh7 cells, constitutively expressing the HCV replicon, were grown in Dulbecco's Modified Eagle Media (DMEM) containing 10% Fetal calf serum (FCS) and 1 mg/ml G418 (Gibco-BRL). Cells were seeded the night before (1.5×10^4 cells/well) in 96-well tissue-culture sterile plates. Compound and no compound controls were prepared in DMEM containing 4% FCS, 1:100 Penicillin/Streptomysin, 1:100 L-glutamine and 5% DMSO in the dilution plate (0.5% DMSO final concentration in the assay). Compound/DMSO mixes were added to the cells and incubated for 4 days at 37° C. After 4 days, cells were first assessed for cytotoxicity using alamar Blue (Trek Diagnotstic Systems) for a CC50 reading. The toxicity of compound (CC50) was determined by adding 1/10th volume of alamar Blue to the media incubating the cells. After 4 hr, the fluorescence signal from each well was read, with an excitation wavelength at 530 nm and an emission wavelength of 580 nm, using the Cytofluor Series 4000 (Perspective Biosystems). Plates were then rinsed thoroughly with Phosphate-Buffered Saline (PBS) (3 times 150 μl). The cells were lysed with 25 μl of a lysis assay reagent containing an HCV protease substrate (5× cell Luciferase cell culture lysis reagent (Promega #E153A) diluted to 1× with distilled water, NaCl added to 150 mM final, the FRET peptide diluted to 10 μM final from a 2 mM stock in 100% DMSO). The HCV protease substrate (FRET peptide; AnaSpec, Inc. cat #22991, described by Taliani et al. in Anal. Biochem. 240(2):60–67 (1996)) contains a fluorescence donor, EDANS, near one end of the peptide and an acceptor, DABCYL, near the other end. […]

SMILES	pEC50
CC(C)(C)OC(=O)NC1CSCCCC=CC2CC2(C(=O)NS(=O)(=O)C2CC2)NC(=O)C2CC(Oc3nccc4c(Cl)cccc34)CN2C1=O (stereo not shown) [Compound 78]	> 7.30
COc1ccc2c(OC3CC4C(=O)NC5(C(=O)NS(=O)(=O)C6(C)CC6)CC5C=CCCCOC(C)C(NC(=O)NC5CCCC5)C(=O)N4C3)nccc2c1 (stereo not shown) [Compound 69]	> 7.30
O=C(N[C@H]1CCCCC/C=C\[C@@H]2C[C@@]2(C(=O)NS(=O)(=O)C2CC2)NC(=O)[C@@H]2C[C@@H](Oc3nccc4ccccc34)CN2C1=O)OC1CCOCC1 [Compound 14, [4-Cyclopropanesulfonylaminocarbonyl-18-(isoquinolin-1-yloxy)-2,15-dioxo-3,16-diaza-tricyclo[14.3.0.0^4,6]nonadec-7-en-14-yl]-carbamic acid tetrahydro-pyran-4-yl ester]	> 7.30
COc1ccc2c(OC3CC4C(=O)NC5(C(=O)NS(=O)(=O)C6(C)CC6)CC5C=CCOCCCC(NC(=O)OC(C)C)C(=O)N4C3)nccc2c1 (stereo not shown) [Compound 35]	> 7.30
CCC1(S(=O)(=O)NC(=O)C23CC2C=CCOCCCC(NC(=O)OC(C)C)C(=O)N2CC(Oc4nccc5cc(OC)ccc45)CC2C(=O)N3)CC1 (stereo not shown) [Compound 37]	> 7.30
COc1ccc2c(OC3C[C@H]4C(=O)N[C@]5(C(=O)NS(=O)(=O)C6CC6)C[C@H]5/C=C\CCCSC[C@H](NC(=O)OC(C)(C)C)C(=O)N4C3)nccc2c1 (stereo partly shown) [Compound 18B, [4-Cyclopropanesulfonylaminocarbonyl-18-(6-methoxy-isoquinolin-1-yloxy)-2,15-dioxo-12-thia-3,16-diaza-tricyclo[14.3.0.0^4,6]nonadec-7-en-14-yl]-carbamic acid tert-butyl ester]	> 7.30
COc1ccc2c(OC3CC4C(=O)NC5(C(=O)NS(=O)(=O)C6(C)CC6)CC5C=CCCCCCC(NC(=O)OC(C)(C)C)C(=O)N4C3)nccc2c1 (stereo not shown) [Compound 53]	> 7.30
CCC1(S(=O)(=O)NC(=O)C23CC2C=CCCCS(=O)(=O)CC(NC(=O)OC(C)(C)C)C(=O)N2CC(Oc4nccc5cc(OC)ccc45)CC2C(=O)N3)CC1 (stereo not shown) [Compound 48]	6.30 to 7.30
CCC1(S(=O)(=O)NC(=O)C23CC2C=CCOCCCC(NC(=O)OC(C)(C)C)C(=O)N2CC(Oc4nccc5cc(OC)ccc45)CC2C(=O)N3)CC1 (stereo not shown) [Compound 30]	> 7.30
CC(C)(OC(=O)NC1CCCCCC=CC2CC2(C(=O)NS(=O)(=O)C2CC2)NC(=O)C2CC(Oc3nccc4ccccc34)CN2C1=O)C(F)(F)F (stereo not shown) [Compound 51]	> 7.30
COc1ccc2c(OC3CC4C(=O)NC5(C(=O)NS(=O)(=O)C6(C)CC6)CC5C=CCCCSCC(NC(=O)OC(C)C)C(=O)N4C3)nccc2c1 (stereo not shown) [Compound 41]	> 7.30
COc1ccc2c(OC3CC4C(=O)NC5(C(=O)NS(=O)(=O)C6CC6)CC5C=CCOCCCC(NC(=O)OC(C)(C)C(F)(F)F)C(=O)N4C3)nccc2c1 (stereo not shown) [Compound 39]	> 7.30
CCCNC(=O)NC1CCCCCC=CC2CC2(C(=O)NS(=O)(=O)C2CC2)NC(=O)C2CC(Oc3nccc4ccccc34)CN2C1=O (stereo not shown) [Compound 23]	> 7.30
COc1ccc2c(OC3CC4C(=O)NC5(C(=O)NS(=O)(=O)C6(C)CC6)CC5C=CCCCOC(C)C(NC(=O)OC(C)(C)C)C(=O)N4C3)nccc2c1 (stereo not shown) [Compound 66]	6.30 to 7.30
CC(C)OC(=O)N[C@H]1CCCCC/C=C\[C@@H]2C[C@@]2(C(=O)NS(=O)(=O)C2CC2)NC(=O)[C@@H]2C[C@@H](Oc3nccc4ccccc34)CN2C1=O [Compound 16, [4-Cyclopropanesulfonylaminocarbonyl-18-(isoquinolin-1-yloxy)-2,15-dioxo-3,16-diaza-tricyclo[14.3.0.0^4,6]nonadec-7-en-14-yl]-carbamic acid isopropyl ester]	> 7.30
CCC1(S(=O)(=O)NC(=O)C23CC2C=CCCCCCC(NC(=O)OC(C)(C)C)C(=O)N2CC(Oc4nccc5cc(OC)ccc45)CC2C(=O)N3)CC1 (stereo not shown) [Compound 54]	> 7.30
COc1ccc2c(OC3CC4C(=O)NC5(C(=O)NS(=O)(=O)C6(C)CC6)CC5C=CCOCCCC(NC(=O)OC(C)(C)C)C(=O)N4C3)nccc2c1 (stereo not shown) [Compound 29]	> 7.30
COc1ccc2c(O[C@@H]3C[C@H]4C(=O)N[C@]5(C(=O)O)C[C@H]5/C=C\CCCOC[C@H](NC(=O)OC(C)(C)C)C(=O)N4C3)nccc2c1 [Compound 84, (1S,4R,6S,14S,18R)-7-cis-14-tert-Butoxycarbonylamino-18-(6-methoxyisoquinolin-1-yloxy)-2,15-dioxo-12-oxa-3,16-diazatricyclo[14.3.0.0^4,6]-nonadec-7-ene-4-carboxylic acid]	5.30 to 6.30
CCCC1(S(=O)(=O)NC(=O)[C@@]23C[C@H]2/C=C\CCCCC[C@H](NC(=O)OC(C)(C)C)C(=O)N2C[C@H](Oc4nccc5ccccc45)C[C@H]2C(=O)N3)CC1 [Compound 6, [18-(Isoquinolin-1-yloxy)-2,15-dioxo-4-(1-propyl-cyclopropanesulfonylaminocarbonyl)-3,16-diaza-tricyclo[14.3.0.0^4,6]nonadec-7-en-14-yl]-carbamic acid tert-butyl ester]	> 7.30
CC(C)(C)OC(=O)N[C@H]1CN(S(=O)(=O)c2ccccc2[N+](=O)[O-])CCC/C=C\[C@@H]2C[C@@]2(C(=O)O)NC(=O)[C@@H]2C[C@@H](Oc3nccc4ccccc34)CN2C1=O [Compound 144]	4.30 to 5.30
CC(C)(C)OC(=O)N[C@H]1CCCCC/C=C\[C@@H]2C[C@@]2(C(=O)NS(=O)(=O)C2CC2)NC(=O)[C@@H]2C[C@@H](Oc3nc(-c4ccccc4)cc4ccccc34)CN2C1=O [Compound 58, [(Z)-(1S,4R,14S,18R)-4-cyclopropanesulfonylaminocarbonyl-2,15-dioxo-18-(3-phenyl-isoquinolin-1-yloxy)-3,16-diaza-tricyclo[14.3.0.0^4,6]nonadec-7-en-14-yl]-carbamic acid tert-butyl ester]	> 7.30
CC(C)(C)OC(=O)N[C@H]1CCCCC/C=C\[C@@H]2C[C@@]2(C(=O)NS(=O)(=O)C2(C)CC2)NC(=O)[C@@H]2C[C@@H](Oc3nccc4ccccc34)CN2C1=O [Compound 8, [18-(Isoquinolin-1-yloxy)-4-(1-methyl-cyclopropanesulfonylaminocarbonyl)-2,15-dioxo-3,16-diaza-tricyclo[14.3.0.0^4,6]nonadec-7-en-14-yl]-carbamic acid tert-butyl ester]	> 7.30
COc1ccc2c(OC3CC4C(=O)NC5(C(=O)NS(=O)(=O)C6CC6)CC5C=CCCCSCC(NC(=O)OC(C)C)C(=O)N4C3)nccc2c1 (stereo not shown) [Compound 74]	> 7.30
COc1ccc2c(OC3CC4C(=O)NC5(C(=O)NS(=O)(=O)C6CC6)CC5C=CCCCOC(C)C(NC(=O)NC5CCCC5)C(=O)N4C3)nccc2c1 (stereo not shown) [Compound 65]	> 7.30
COc1ccc2c(O[C@@H]3C[C@H]4C(=O)N[C@]5(C(=O)O)C[C@H]5/C=C\CCCO[C@H](C)[C@H](NC(=O)OC(C)(C)C)C(=O)N4C3)nccc2c1 [Compound 61]	4.30 to 5.30
COc1ccc2c(OC3CC4C(=O)NC5(C(=O)O)CC5C=CCCCCC(NC(=O)OC(C)(C)C)C(=O)N4C3)nccc2c1 (stereo not shown) [Compound 143]	5.30 to 6.30
CCC1(S(=O)(=O)NC(=O)C23CC2C=CCCCSCC(NC(=O)OC(C)C)C(=O)N2CC(Oc4nccc5cc(OC)ccc45)CC2C(=O)N3)CC1 (stereo not shown) [Compound 44]	> 7.30
N[C@H]1CCCCC/C=C\[C@@H]2C[C@@]2(C(=O)NS(=O)(=O)C2CC2)NC(=O)[C@@H]2C[C@@H](Oc3nccc4ccccc34)CN2C1=O [Compound 11, Cyclopropanesulfonic acid [14-amino-18-(isoquinolin-1-yloxy)-2,15-dioxo-3,16-diaza-tricyclo[14.3.0.0^4,6]nonadec-7-ene-4-carbonyl]-amide bis hydrochloride]	6.30 to 7.30
